Assay results as given in PMC12715794, “Comparative Characterization of Oxidative Enzymes for Arabinoxylan and Protein Cross-Linking via Ferulic Acid and Tyrosine in Model Systems” (Journal of Agricultural and Food Chemistry, 2025).
Structures can show the parent of a compound that is named as a salt. Where two headings read alike, the source gives them in different places.

Key:
[1] = tested on: T1, TvL; laccase from Trametes versicolor; details: at pH and temperature optima; McIlvaine buffer
T1 construct: gene LCC2

[2] = biological target: T2, AnG; glucose oxidase from Aspergillus niger (Aspergillus niger, UniProt P13006); test: ABTS-HrP-coupled spectrophotometric assay, […] nm; assay type: biochemical; details: 16 mM glucose, 1 mM ABTS, excess HrP (0.7 mg/mL); McIlvaine buffer
T2 construct: gene gox
T2 sequence (P13006 23-605): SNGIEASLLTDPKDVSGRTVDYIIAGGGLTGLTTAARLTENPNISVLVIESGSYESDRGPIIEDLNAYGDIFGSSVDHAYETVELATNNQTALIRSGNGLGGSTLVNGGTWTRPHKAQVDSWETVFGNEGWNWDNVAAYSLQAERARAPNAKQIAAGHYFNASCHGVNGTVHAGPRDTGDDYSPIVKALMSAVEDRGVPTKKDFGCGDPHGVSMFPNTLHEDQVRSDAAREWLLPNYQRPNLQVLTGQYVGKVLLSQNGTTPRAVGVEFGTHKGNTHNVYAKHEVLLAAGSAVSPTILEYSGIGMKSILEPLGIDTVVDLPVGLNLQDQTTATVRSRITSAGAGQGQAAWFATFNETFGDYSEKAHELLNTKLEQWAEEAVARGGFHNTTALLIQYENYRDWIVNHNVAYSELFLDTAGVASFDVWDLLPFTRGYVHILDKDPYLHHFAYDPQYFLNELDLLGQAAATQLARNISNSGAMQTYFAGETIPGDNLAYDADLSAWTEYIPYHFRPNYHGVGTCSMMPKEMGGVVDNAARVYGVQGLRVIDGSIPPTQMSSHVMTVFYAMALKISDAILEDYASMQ

[3] = tested on: T1, TvL; laccase from Trametes versicolor; details: at pH and temperature optima; McIlvaine buffer; enzyme alone
[4] = tested on: T3, AbT; tyrosinase from Agaricus bisporus; test: HTyr-MBTH spectrophotometric assay, […] nm; assay type: biochemical; details: at pH and temperature optima; McIlvaine buffer; excess MBTH, 2% DMF
T3 construct: gene PPO3

[5] = tested on: T1, TvL; laccase from Trametes versicolor; test: HTyr-MBTH spectrophotometric assay, […] nm; assay type: biochemical; details: at pH and temperature optima; McIlvaine buffer; excess MBTH, 2% DMF
[6] = tested on: T3, AbT; tyrosinase from Agaricus bisporus; test: spectrophotometric, product formation at […] nm; assay type: biochemical; details: at pH and temperature optima; McIlvaine buffer; enzyme alone

## CCn1c(=NN=c2sc3cc(S(=O)(=O)O)ccc3n2CC)sc2cc(S(=O)(=O)O)ccc21 [ABTS, 2,2′-azino-bis(3-ethylbenzothiazoline-6-sulfonic acid) diammonium salt]
[1]
  Km: 36 µM

## OC[C@H]1OC(O)[C@H](O)[C@@H](O)[C@@H]1O (stereo partly drawn) [D-glucose]
[2]
  ABTS-HrP-coupled spectrophotometric assay, 415 nm: For AnG, glucose as a substrate was converted to H2O2

## COc1cc(/C=C/C(=O)O)ccc1O [FA, trans-ferulic acid]
[3]
  Km: 57 µM

## OCCc1ccc(O)c(O)c1 [HTyr, hydroxytyrosol]
[4]
  Km: 44 µM
[5]
  Km: 73 µM

## N[C@@H](Cc1ccc(O)cc1)C(=O)O [Y, L-tyrosine]
[6]
  Km: 504 µM
